Measured values as given in the NIST ThermoML archive (doi:10.1016/j.jct.2017.03.006).
Numbers after ± are expanded uncertainties.

Experiment: xn = mol fraction of the nth substance listed
Settings: Liquid; for mass density: 313.15 K, Vibrating tube method; for viscosity: 323.15 K, 100 kPa, Concentric cylinders viscometry

For `Cc1ccc(C)c(C)c1` [1,2,4-trimethylbenzene] + CCC(C)O, the mass density (50000 kPa, x2 = 0.5997) was 855 ± 0.8 kg/m3, the mass density (50000 kPa, x2 = 0.6999) was 848.2 ± 0.8 kg/m3 and the mass density (50000 kPa, x2 = 0.7999) was 841.1 ± 0.8 kg/m3. The mass density (50000 kPa, x2 = 0.9) was 833.3 ± 0.8 kg/m3, the mass density (60000 kPa, x2 = 0) was 895 ± 0.8 kg/m3 and the mass density (60000 kPa, x2 = 0.1) was 890.1 ± 0.8 kg/m3. The mass density (60000 kPa, x2 = 0.1989) was 884.6 ± 0.8 kg/m3, the mass density (60000 kPa, x2 = 0.3011) was 878.8 ± 0.8 kg/m3 and the mass density (60000 kPa, x2 = 0.4002) was 873.1 ± 0.8 kg/m3. It also gave a mass density (60000 kPa, x2 = 0.5001) of 867.1 ± 0.8 kg/m3, a mass density (60000 kPa, x2 = 0.5997) of 860.6 ± 0.8 kg/m3 and a mass density (60000 kPa, x2 = 0.6999) of 853.8 ± 0.8 kg/m3. The mass density (60000 kPa, x2 = 0.7999) was 846.7 ± 0.8 kg/m3, the mass density (60000 kPa, x2 = 0.9) was 839 ± 0.8 kg/m3 and the mass density (70000 kPa, x2 = 0) was 899.9 ± 0.8 kg/m3. The mass density (70000 kPa, x2 = 0.1) was 895.3 ± 0.8 kg/m3, the mass density (70000 kPa, x2 = 0.1989) was 889.7 ± 0.8 kg/m3 and the mass density (70000 kPa, x2 = 0.3011) was 884.1 ± 0.8 kg/m3. It also gave a mass density (70000 kPa, x2 = 0.4002) of 878.3 ± 0.8 kg/m3, a mass density (70000 kPa, x2 = 0.5001) of 872.4 ± 0.8 kg/m3 and a mass density (70000 kPa, x2 = 0.5997) of 865.9 ± 0.8 kg/m3. For the same molecule, the mass density (70000 kPa, x2 = 0.6999) was 859.1 ± 0.8 kg/m3, the mass density (70000 kPa, x2 = 0.7999) was 852.1 ± 0.8 kg/m3 and the mass density (70000 kPa, x2 = 0.9) was 844.4 ± 0.9 kg/m3. It also gave a mass density (80000 kPa, x2 = 0) of 904.6 ± 0.8 kg/m3, a mass density (80000 kPa, x2 = 0.1) of 900.1 ± 0.8 kg/m3 and a mass density (80000 kPa, x2 = 0.1989) of 894.7 ± 0.8 kg/m3. For the same molecule, the mass density (80000 kPa, x2 = 0.3011) was 889 ± 0.8 kg/m3, the mass density (80000 kPa, x2 = 0.4002) was 883.3 ± 0.8 kg/m3 and the mass density (80000 kPa, x2 = 0.5001) was 877.5 ± 0.8 kg/m3. For the same molecule, the mass density (80000 kPa, x2 = 0.5997) was 871 ± 0.8 kg/m3, the mass density (80000 kPa, x2 = 0.6999) was 864.2 ± 0.8 kg/m3 and the mass density (80000 kPa, x2 = 0.7999) was 857.2 ± 0.9 kg/m3. For the same molecule, the mass density (80000 kPa, x2 = 0.9) was 849.5 ± 0.9 kg/m3, the mass density (90000 kPa, x2 = 0) was 909 ± 0.8 kg/m3 and the mass density (90000 kPa, x2 = 0.1) was 904.7 ± 0.8 kg/m3. The mass density (90000 kPa, x2 = 0.1989) was 899.4 ± 0.8 kg/m3, the mass density (90000 kPa, x2 = 0.3011) was 893.6 ± 0.8 kg/m3 and the mass density (90000 kPa, x2 = 0.4002) was 888.1 ± 0.8 kg/m3. For the same molecule, the mass density (90000 kPa, x2 = 0.5001) was 882.2 ± 0.8 kg/m3, the mass density (90000 kPa, x2 = 0.5997) was 875.7 ± 0.9 kg/m3 and the mass density (90000 kPa, x2 = 0.6999) was 869 ± 0.9 kg/m3. For the same molecule, the mass density (90000 kPa, x2 = 0.7999) was 861.9 ± 0.9 kg/m3, the mass density (90000 kPa, x2 = 0.9) was 854.3 ± 0.9 kg/m3 and the mass density (100000 kPa, x2 = 0) was 913.3 ± 0.8 kg/m3. The mass density (100000 kPa, x2 = 0.1) was 909.2 ± 0.8 kg/m3, the mass density (100000 kPa, x2 = 0.1989) was 903.8 ± 0.8 kg/m3 and the mass density (100000 kPa, x2 = 0.3011) was 898.1 ± 0.8 kg/m3. The mass density (100000 kPa, x2 = 0.4002) was 892.5 ± 0.8 kg/m3, the mass density (100000 kPa, x2 = 0.5001) was 886.8 ± 0.9 kg/m3 and the mass density (100000 kPa, x2 = 0.5997) was 880.3 ± 0.9 kg/m3. The mass density (100000 kPa, x2 = 0.6999) was 873.6 ± 0.9 kg/m3, the mass density (100000 kPa, x2 = 0.7999) was 866.6 ± 0.9 kg/m3 and the mass density (100000 kPa, x2 = 0.9) was 859 ± 0.9 kg/m3. It also gave a mass density (110000 kPa, x2 = 0) of 917.4 ± 0.8 kg/m3, a mass density (110000 kPa, x2 = 0.1) of 913.5 ± 0.8 kg/m3 and a mass density (110000 kPa, x2 = 0.1989) of 908.1 ± 0.8 kg/m3. The mass density (110000 kPa, x2 = 0.3011) was 902.5 ± 0.8 kg/m3, the mass density (110000 kPa, x2 = 0.4002) was 897 ± 0.9 kg/m3 and the mass density (110000 kPa, x2 = 0.5001) was 891.3 ± 0.9 kg/m3. The mass density (110000 kPa, x2 = 0.5997) was 884.8 ± 0.9 kg/m3, the mass density (110000 kPa, x2 = 0.6999) was 878.1 ± 0.9 kg/m3 and the mass density (110000 kPa, x2 = 0.7999) was 871.1 ± 0.9 kg/m3. It also gave a mass density (110000 kPa, x2 = 0.9) of 863.5 ± 0.9 kg/m3, a mass density (120000 kPa, x2 = 0) of 921.4 ± 0.8 kg/m3 and a mass density (120000 kPa, x2 = 0.1) of 917.6 ± 0.8 kg/m3. The mass density (120000 kPa, x2 = 0.1989) was 912.3 ± 0.8 kg/m3, the mass density (120000 kPa, x2 = 0.3011) was 906.7 ± 0.8 kg/m3 and the mass density (120000 kPa, x2 = 0.4002) was 901.1 ± 0.9 kg/m3. The mass density (120000 kPa, x2 = 0.5001) was 895.5 ± 0.9 kg/m3, the mass density (120000 kPa, x2 = 0.5997) was 889.1 ± 0.9 kg/m3 and the mass density (120000 kPa, x2 = 0.6999) was 882.4 ± 0.9 kg/m3. For the same molecule, the mass density (120000 kPa, x2 = 0.7999) was 875.3 ± 0.9 kg/m3, the mass density (120000 kPa, x2 = 0.9) was 867.7 ± 1 kg/m3 and the mass density (130000 kPa, x2 = 0) was 925.2 ± 0.8 kg/m3. The mass density (130000 kPa, x2 = 0.1) was 921.5 ± 0.8 kg/m3, the mass density (130000 kPa, x2 = 0.1989) was 916.3 ± 0.8 kg/m3 and the mass density (130000 kPa, x2 = 0.3011) was 910.7 ± 0.9 kg/m3. The mass density (130000 kPa, x2 = 0.4002) was 905.2 ± 0.9 kg/m3, the mass density (130000 kPa, x2 = 0.5001) was 899.6 ± 0.9 kg/m3 and the mass density (130000 kPa, x2 = 0.5997) was 893.2 ± 0.9 kg/m3. For the same molecule, the mass density (130000 kPa, x2 = 0.6999) was 886.6 ± 0.9 kg/m3, the mass density (130000 kPa, x2 = 0.7999) was 879.5 ± 0.9 kg/m3 and the mass density (130000 kPa, x2 = 0.9) was 871.9 ± 1 kg/m3. The mass density (140000 kPa, x2 = 0) was 928.9 ± 0.8 kg/m3, the mass density (140000 kPa, x2 = 0.1) was 925.4 ± 0.8 kg/m3 and the mass density (140000 kPa, x2 = 0.1989) was 920.2 ± 0.8 kg/m3. For the same molecule, the mass density (140000 kPa, x2 = 0.3011) was 914.4 ± 0.9 kg/m3, the mass density (140000 kPa, x2 = 0.4002) was 908.9 ± 0.9 kg/m3 and the mass density (140000 kPa, x2 = 0.5001) was 903.7 ± 0.9 kg/m3. It also gave a mass density (140000 kPa, x2 = 0.5997) of 897.3 ± 0.9 kg/m3, a mass density (140000 kPa, x2 = 0.6999) of 890.2 ± 0.9 kg/m3 and a mass density (140000 kPa, x2 = 0.7999) of 883.2 ± 1 kg/m3. The mass density (140000 kPa, x2 = 0.9) was 875.6 ± 1 kg/m3, the viscosity (x2 = 0) was 0.62 ± 0.014 mPa·s and the viscosity (x2 = 0.1001) was 0.62 ± 0.014 mPa·s. For the same molecule, the viscosity (x2 = 0.2261) was 0.614 ± 0.013 mPa·s, the viscosity (x2 = 0.3) was 0.616 ± 0.013 mPa·s and the viscosity (x2 = 0.3966) was 0.646 ± 0.014 mPa·s. The viscosity (x2 = 0.5298) was 0.658 ± 0.014 mPa·s and the viscosity (x2 = 0.6001) was 0.71 ± 0.015 mPa·s.
